Source: publication PMC7940615 (Scientific Reports, 2021)

What was measured:
SARS-CoV-2 [1] = assay: Antiviral assay in Vero E6 cells, immunofluorescence of nucleocapsid protein; format: cell-based; settings: 72 h post infection; for IC50: immunofluorescence, MOI 0.1, read-out: IC50, inhibition of SARS-CoV-2 replication
SARS-CoV-2 [2] = assay: Antiviral assay in human lung A549 cells (ACE2, TMPRSS2), immunofluorescence of nucleocapsid protein; format: cell-based; settings: human lung A549 cells expressing ACE2 and TMPRSS2
SARS-CoV-2 [3] = assay: Viral RNA by qRT-PCR in culture medium of Vero E6 cells; format: cell-based
SARS-CoV-2 [4] = assay: Viral RNA by qRT-PCR in culture medium of human lung A549 cells; format: cell-based
[5] = blood of patients in both clinical studies; cited from earlier work
[6] = test system: hospitalized COVID-19 patients; settings: 1620 patients; total median dose of 136 mg, oral or IV once daily, 6 days; cited from earlier work
[7] = test system: non-hospitalized patients; settings: 10 non-hospitalized patients; oral 240 mg per day for a median of 11 days; cited from earlier work
SARS-CoV-2 [8] = settings: Vero E6 cells; famotidine 0.32–200 µM; remdesivir 0.1–62.5 µM
in vitro = settings: human

NC(N)=Nc1nc(CSCCC(N)=NS(N)(=O)=O)cs1 [Famotidine]
inhibition of SARS-CoV-2 replication (in words) (SARS-CoV-2 [1]; concentrations of up to 200 μM): did not produce any measurable inhibition
inhibition of SARS-CoV-2 replication (in words) (SARS-CoV-2 [2]; 0.32–200 µM, 72 h): no measurable effect
effect on viral RNA copies (qRT-PCR, E gene) (SARS-CoV-2 [3]): no effect
effect on viral RNA copies (qRT-PCR, E gene) (SARS-CoV-2 [4]): no effect
peak plasma concentrations [5]: 0.5 to 2 µM
risk of death or intubation [6]: reduced risk of death or intubation
patient-reported symptoms such as shortness of breath and cough [7]: patient-reported improvements in symptoms
antiviral effect on virus yield (plaque formation) (SARS-CoV-2 [8]): no effect on limiting virus plaque formation

CCC(CC)COC(=O)[C@H](C)N[P@](=O)(OC[C@H]1O[C@@](C#N)(c2ccc3c(N)ncnn23)[C@H](O)[C@@H]1O)Oc1ccccc1 [Remdesivir, remdesivir]
IC50 (SARS-CoV-2 [1]; Severe acute respiratory syndrome coronavirus 2, Vero C1008, 72 h): 3.3 µM
IC50 (SARS-CoV-2 [1]): 3.37 µM
IC50 (SARS-CoV-2 [2]; Severe acute respiratory syndrome coronavirus 2, immunofluorescence, 72 h post infection, MOI 0.1, read-out: IC50, inhibition of SARS-CoV-2 replication): 0.43 µM
effect on viral RNA copies (qRT-PCR, E gene) (SARS-CoV-2 [3]): dose-dependent
effect on viral RNA copies (qRT-PCR, E gene) (SARS-CoV-2 [4]): dose-dependent
cytotoxicity (in words) (Vero E6 cells): dose-dependent cytotoxicity at higher concentrations
cytotoxicity (in words) (human lung A549 cells): dose-dependent cytotoxicity at higher concentrations
CC50 (in vitro): 14.6 µM
antiviral effect on virus yield (plaque formation) (SARS-CoV-2 [8]): dose-dependent antiviral effect
